Results on 2 molecules are retold here after patent publication US12599580B2, “Composition comprising a lipid compound, a triglyceride, and a surfactant, and methods of using the same” (BASF AS, priority 2013, dated 2026).

The half-life is the time needed for the level to fall by half in the phase considered.

Counter-ions that a name gives are not always drawn. Like-named read-outs stand apart in the source and are kept apart here.

The nature of series [1]: Solubility of salts in surfactants and co-solvents. Format: physicochemical. The text has this: Salts prepared from monovalent counter ions are all highly soluble in surfactants according to the present disclosure and excellent pre-concentrates and SMEDDS can be prepared.
Series [2] is described as follows: Solubility of the API in water. Type of series: physicochemical. The text has this: (§1) Thus, low bioavailability is expected.
Series [3] can be described thus: Phase 1 study, escalating single oral doses 5 to 600 mg. Type of series: in vivo, healthy subjects (humans). Particulars: single oral doses between 5 to 600 mg, healthy subjects. The method, then:
Phase 1 study of 2-((5Z,8Z,11Z,14Z,17Z)-icosa-5,8,11,14,17-pentaenyloxy)butanoic acid (API) assessing the safety, tolerability, PK, and pharmacodynamics (PD) has been performed in healthy individuals. Each dose group consisted of 6 healthy subjects. The initial dose of API received was 5 mg, and the maximum dose of API was 600 mg. The API was mixed with other components of the formulations according to Table 20, the premix was filled into capsules and administered orally to humans.
A minimum of 10 days intervene before each dose escalation. Escalating doses are administered to the groups sequentially.

Series [4] is described as follows: Phase 1 study, pharmacokinetics in male and female, 300 mg b.i.d for 14 days. Type of series: in vivo, healthy subjects (humans). Particulars: for AUC / Cmax: human, plasma, oral, composition No. 27; for AUC: read-out: Geometric mean AUC0-τ; for Cmax: read-out: Geometric mean Cmax. The method, then:
Phase 1 study of 2-((5Z,8Z,11Z,14Z,17Z)-icosa-5,8,11,14,17-pentaenyloxy)butanoic acid (API) assessing the safety, tolerability, PK, and pharmacodynamics (PD) has been performed in healthy individuals. Each dose group consisted of 6 healthy subjects. An API dose of 300 mg b.i.d was given orally to males and females for 14 consecutive days. The formulation given included Tween 20 (40 wt %), Miglyol 812N (30 wt %) and API (30 wt %). The API was mixed with other components in the formulation as described under “General procedures.” The formulation of this example corresponds to composition No. 27 of Example 1.

Series [5] can be described thus: Permeability of the API. Type of series: in vitro ADME.
Excerpt: as §1

The nature of series [6]: Phase 1 study, individual variability in pharmacokinetics at 600 mg. Format: in vivo, healthy subjects (humans). Particulars: single oral dose 600 mg, composition No. 27, healthy male subjects. As for the experimental part:
Phase 1 study of 2-((5Z,8Z,11Z,14Z,17Z)-icosa-5,8,11,14,17-pentaenyloxy)butanoic acid (API) assessing the safety, tolerability, PK, and pharmacodynamics (PD) has been performed in healthy individuals. Each dose group consisted of 6 healthy subjects. The initial dose API received was 5 mg, and the maximum dose was 600 mg. Data presented here are with an API dose of 600 mg. This formulation included Tween 20 (40 wt %), Miglyol 812N (30 wt %) and API (30 wt %). The API was mixed with other components of the composition as described under “General procedures.” The formulation for this example corresponds to composition No. 27 of Example 1. A minimum of 10 days intervene before each dose escalation. Escalating doses were administered to the groups sequentially.

Series [7] is described as follows: Phase 1 study, food effect (fed and fasted state), single oral dose. Particulars: human, plasma; for AUC(0-t): composition No. 27 in capsules, healthy male subjects, read-out: AUC0-24 h. Format: in vivo, healthy subjects (humans). The text has this: Phase 1 study of 2-((5Z,8Z,11Z,14Z,17Z)-icosa-5,8,11,14,17-pentaenyloxy)butanoic acid (API) assessing the safety, tolerability, PK, and pharmacodynamics (PD) have been performed in healthy individuals. Each group consisted of 6 healthy subjects. The formulation according to the present disclosure included Tween 20 (40 wt %), Miglyol 812N (30 wt %) and API (30 wt %). The API was mixed with other components of the composition as described under “General procedures.” The formulation of this example corresponds to composition No. 27 of Example 1. The premix was filled into capsules and administered orally to humans.

For series [8], the system named is APOE*3Leiden.CETP transgenic mouse model. Particulars: cited from earlier work.
Setting [9] is: male, po, 100 mg, Fasted, single oral dose 100 mg API.
Where [10] appears, read: male, po, 100 mg, Fed, single oral dose 100 mg API.

As to `CC/C=C\C/C=C\C/C=C\C/C=C\C/C=C\CCCCOC(CC)C(=O)O` (stereo not shown) [magnesium salt, magnesium 2-((5Z,8Z,11Z,14Z,17Z)-icosa-5,8,11,14,17-pentaenyloxy)butanoate], the “solubility in surfactants and co-solvents” value in series [1] is “medium solubility”.

`CC/C=C\C/C=C\C/C=C\C/C=C\C/C=C\CCCCOC(CC)C(=O)O` (stereo not shown) [API, 2-((5Z,8Z,11Z,14Z,17Z)-icosa-5,8,11,14,17-pentaenyloxy)butanoic acid]: in series [2], the solubility in water entry is on record as “low solubility in water”. The “increase of exposure (Cmax and AUC0-24) with dose” value in series [3] is given as “higher than dose-proportional manner”. In addition, the “gender differences in pharmacokinetics (Cmax, AUC0-24)” value in series [4] (300 mg b.i.d, males and females, 14 consecutive days) is “no gender differences in pharmacokinetics”. In addition, in series [4] (Day 14, 300 mg b.i.d), the “AUC Ratio E/M” value is recorded as 0.937 and the “Cmax Ratio E/M” value stood at 1.12. In series [4] (Female, Day 14, 300 mg b.i.d), the AUC came out at 75800 ng·h/mL and the Cmax was 15800 ng/mL. For the same molecule, in series [4] (Male, Day 14, 300 mg b.i.d), the AUC is 80900 ng·h/mL and the Cmax amounted to 14100 ng/mL. In addition, in series [5], the permeability entry is listed as “low permeability”. Besides, in series [6], the “% CV (relative variability) of AUC0-24” value is ~15% and the “% CV (relative variability) of Cmax” value is “approximately 10%”. Also, the Tmax in series [7] (both sexes, oral, healthy male and female subjects receiving single doses, read-out: mean Tmax) lay in the range of 1 to 2 h. In addition, in series [7] (setting [9]), the Cmax was 2800 ng/mL, the half-life was 6.36 ± 3.13 h and the AUC(0-t) was 14000 ng·h/mL. Further, the Tmax in series [7] (male, po, 100 mg, Fasted, single oral dose 100 mg API, read-out: Tmax) was 1.4 h. In addition, in series [7] (setting [10]), the Cmax stood at 2700 ng/mL, the half-life is 6.29 ± 2.13 h and the AUC(0-t) is 15000 ng·h/mL. Besides, the Tmax in series [7] (male, po, 100 mg, Fed, single oral dose 100 mg API, read-out: Tmax) worked out at 3.6 h. For the same molecule, in series [8], the “HDL cholesterol as compared to a control” value is recorded as “increased”, the “atherosclerotic lesion areas in the aorta as compared to a control” value is “decreased” and the “total cholesterol as compared to a control” value is recorded as “decreased”.
